{"source": "paper PMC535546", "about": "“Assessment of FIV-C infection of cats as a function of treatment with the protease inhibitor, TL-3” (Retrovirology, 2004)", "key": {"[1]": {"tested_on": "SIV (simian immunodeficiency virus)", "set-up": "method as in PMID 9448264", "details": "cited from earlier work"}, "FIV-C (CABCpady00C)": {"tested_on": "FIV-C (CABCpady00C)", "assay": "FIV-C infection of cats with oral TL-3 treatment (viral load, disease, survival)", "type": "in vivo, cat", "experimental": "Twenty-two female specific pathogen-free (SPF) cats were randomly divided into five groups. Group 0 consisted of two cats, which received TL-3 treatment without viral infection and were considered controls. Group 1 (n = 5) received 0.1 ml (10^5 RNA copies/ml) of FIV-C-infected plasma I.V. with TL-3 drug treatment. Group 2 (n = 5) received 0.1 ml FIV-C-infected plasma without TL-3 treatment. Group 3 (n = 5) received 0.5 ml FIV-C-infected plasma with TL-3 and Group 4 (n = 5) received 0.5 ml FIV-C-infected plasma without TL-3 treatment. Blood (1 ml) was drawn from all cats prior to the start of the experiment, at weekly intervals for the first four weeks after infection, and at bi-monthly intervals from week 4 until the end of the study. Complete blood counts were assessed as a function of infection and TL-3 treatment. In addition, quantitative reverse transcription PCR (QRT-PCR) analyses were performed to assess plasma viral load. All animals were continuously observed for any changes in general health. No significant differences were noted between viral load or disease phenotype between the two plasma dosages used in infection and subsequent discussion will not distinguish between these two groups.\nPlasma samples (10^5 RNA copies/ml) from a cat, that had died from an acute infection with CABCpady00C (FIV-C), were kindly provided by Dr. E. Hoover, of Colorado State University. Cats were injected I.V. with either 0.1 ml (10^5 RNA copies/ml) or 0.5 ml of plasma.\n(§1) All procedures for care of cats during dosing as well as dosing procedures were mandated by TSRI's IACUC. Oral TL-3 (L-Iditol,1,2,5,6-tetradeoxy-1,6-diphenyl-2,5-bis [N-[(phenylmethoxy)carbonyl]-L-alanyl-L-valyl]amino]) treatment was initiated in 12 cats, three days prior to infection of ten of the twelve animals with FIV-C. All TL-3 treated animals received 20 mg TL-3 by capsules at eight hour intervals, for approx. the first 7.5 weeks of the experiment. Dosage was then doubled to 40 mg TL-3 per dose at eight hour intervals for an additional week for the two control animals and the eight surviving animals in the TL-3 treated, infected cohort.\nAnimals were examined daily and in case of health concerns further therapy/diagnostics were initiated. Animals with abnormal weight, or on antibiotics were placed on supplemental feeding with moist food and Nutrical. Dehydrated animals received subcutaneous fluid therapy. More affected animals received supportive care and medications, consisting of BID administration of antibiotics (Baytril), BID subcutaneous fluid therapy, BID temperature evaluation, BID application of antibiotic ophthalmic ointment supportive care. Any animals that required extensive supportive care (TID fluid therapy, TID force feeding) were euthanized. Euthanasia of research animals was conducted with strict adherence to NIH Office of Laboratory Animal Welfare protocols.\nPlasma for weeks 0, 2, 4, 6 (terminal points for cats 215, 221, and 229), 6.5 (terminal points for cats 219, 220, and 234), and 8, were isolated from whole blood by centrifugation and stored at -20°C. Viral RNA was extracted using the QiaAmp Viral RNA Isolation Kit (Qiagen, Valencia, CA) according to manufacturer's instructions with slight modifications: Plasma samples (280 μl) were lysed in buffer AVL (1,120 μl) (Qiagen) for 10 minutes at room temperature in the presence of carrier RNA (10 μg/ml) and an external Kanamycin (KAN) RNA spike. Equal amounts of the external RNA spike (10^9 copies RNA /280 μl plasma), corresponding to the 1.2 kb KAN gene (Promega, Madison, WI), was used to normalize plasma volumes between samples and to correct for sample loss from viral RNA extraction and cDNA synthesis. An on-column DNase/ RNase free (Qiagen) incubation step for 10 minutes at room temperature was added to remove residual cellular DNA. […]"}, "wild-type FIV-C protease": {"biological_target": "wild-type FIV-C protease", "assay": "Inhibitor constant (Ki) of TL-3 against wild-type FIV-C protease, fluorogenic substrate", "type": "biochemical, feline immunodeficiency virus (FIV-C)", "details": "wildtype PR", "excerpt": "(§2) Complementary DNA (cDNA) was synthesized from isolated plasma viral RNA of infected cats. […] The amplified PCR product was gel purified and cloned into pCR-TOPOII vector (Invitrogen, Carlsbad, CA) for sequencing. Selected DNA of mutants, N55D, H72R, D105G, and M107R were digested with Nde I/Hind III and ligated into pET21a expression vector (Novagen). The mutant FIV-C proteases were expressed in Rosetta pLysS cells (Novagen) and purified as previously described.\n(§3) Enzyme kinetics of FIV-C protease were assayed on the flourogenic substrate Arg-Ala-Leu-Thr-Lys(Abz)-Val-Gln/Phe(NO2)-Val-Gln-Ser-Lys-Gly-Arg-NH2. […] Inhibitor constant (Ki) of TL-3 against mutant FIV-C protease was analyzed as described."}, "[2]": {"biological_target": "T1, FIV-C protease mutant H72R (HIV63L) (Feline immunodeficiency virus, UniProt P16088, H110R)", "T1 construct": "adds a stop codon and a Hind III restriction site to the C-terminus of the protease; Met-Ala N-terminal extension (printed 'methionine, and alkaline'; the primer codes ATG GCA) (N); made in house; host or cells: E. coli Rosetta pLysS, pET21a", "assay": "Inhibitor constant (Ki) of TL-3 against mutant FIV-C protease H72R", "type": "biochemical", "details": "PR mutation H72R (HIV63L), cat 231", "excerpt": "as §2, §3"}, "HIV-1": {"tested_on": "HIV-1", "set-up": "method as in PMID 9448264", "details": "cited from earlier work"}, "[3]": {"biological_target": "FIV-C protease mutant D105G (HIV88N) (Feline immunodeficiency virus, UniProt P16088, D143G)", "excerpt": "as §2, §3"}, "FIV-PPR": {"tested_on": "FIV-PPR", "details": "FIV-PPR infected cats; cited from earlier work"}, "FIV": {"tested_on": "FIV", "set-up": "method as in PMID 9448264", "details": "cited from earlier work"}, "[4]": {"biological_target": "T2, FIV-C protease mutant N55D (HIV46M) (Feline immunodeficiency virus, UniProt P16088, N93D)", "T2 construct": "adds a stop codon and a Hind III restriction site to the C-terminus of the protease; Met-Ala N-terminal extension (printed 'methionine, and alkaline'; the primer codes ATG GCA) (N); made in house; host or cells: E. coli Rosetta pLysS, pET21a", "assay": "Inhibitor constant (Ki) of TL-3 against mutant FIV-C protease N55D", "type": "biochemical", "details": "PR mutation N55D (HIV46M), cat 231", "excerpt": "as §2, §3"}, "[5]": {"assay": "Tolerability of oral TL-3 in uninfected control cats", "type": "in vivo, cat", "details": "TL-3 treated controls, 20 mg then 40 mg oral every eight hours", "experimental": "as §1"}}, "data": [{"compound": "CC(C)[C@H](NC(=O)[C@H](C)NC(=O)OCc1ccccc1)C(=O)N[C@@H](Cc1ccccc1)[C@@H](O)[C@H](O)[C@H](Cc1ccccc1)NC(=O)[C@@H](NC(=O)[C@H](C)NC(=O)OCc1ccccc1)C(C)C", "note": "[TL-3]", "values": [{"measurement": "inhibition of infection in vitro", "setting": "[1]", "value": "inhibits"}, {"measurement": "animals that had lost weight", "setting": "FIV-C (CABCpady00C); 6 weeks post infection, + TL-3 cohort, three also in -TL-3 cohort", "value": "three"}, {"measurement": "animals that required euthanasia", "setting": "FIV-C (CABCpady00C); TL-3 treated group, of six euthanized, four from untreated cohort", "value": "two"}, {"measurement": "average (peak) viral loads vs untreated animals", "setting": "FIV-C (CABCpady00C); acute phase, did not reach statistical significance", "value": "lower"}, {"measurement": "animals showing clinical signs of debilitating acute phase disease", "setting": "FIV-C (CABCpady00C); by week 6 post infection, TL-3 treated groups, of seven affected, four untreated", "value": "three"}, {"measurement": "prevention of viremia", "setting": "FIV-C (CABCpady00C); oral monotherapy, high dose FIV-C", "value": "did not prevent viremia"}, {"measurement": "plasma viremia, TL-3 treated vs untreated cohorts", "setting": "FIV-C (CABCpady00C); week 2 post infection", "value": "little differences in viral loads"}, {"measurement": "animals with viral loads below detection limits", "setting": "FIV-C (CABCpady00C); week 8 post infection, surviving TL-3 treated cats, oral 20 mg every eight hours, untreated: one of six", "value": "four of 8 and half"}, {"measurement": "Ki", "setting": "wild-type FIV-C protease", "value": 0.0099, "unit": "µM"}, {"measurement": "Ki", "setting": "[2]", "value": 0.0109, "unit": "µM"}, {"measurement": "inhibition of infection in vitro", "setting": "HIV-1", "value": "inhibits"}, {"measurement": "resistance against TL-3 relative to wild type protease", "setting": "[3]; D105G mutant vs wild type FIV-C protease", "value": 5, "unit": "fold"}, {"measurement": "Ki", "setting": "[3]; read-out: Ki vs TL-3, PR mutation D105G (HIV88N), cloned from cats 231 and 222", "value": 0.0473, "unit": "µM"}, {"measurement": "effect on delays in brainstem auditory evoked potentials (BAEPs)", "setting": "FIV-PPR", "value": "could reverse this effect"}, {"measurement": "effect on neurologic alterations in the CNS", "setting": "FIV-PPR", "value": "significant protective effect"}, {"measurement": "plasma viral loads", "setting": "FIV-PPR", "value": "lowered plasma viral loads"}, {"measurement": "inhibition of infection in vitro", "setting": "FIV", "value": "inhibits"}, {"measurement": "Ki", "setting": "[4]", "value": 0.0091, "unit": "µM"}, {"measurement": "adverse effects", "setting": "[5]", "value": "No adverse effects"}]}]}
